One assay deals with DNA-PK(h) (Homo sapiens, UniProt P78527). In words: Evaluation of inhibitory activity against DNA-PK (HTRF kinase assay, GST-cMyc-p53 substrate). It is filed as biochemical. The settings on record: compound concentration 0.01 μM; read-out: EXP_VALUE(% Inhibition) DNA-PK(h) 0.01 μM. Summed up: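 Human DNA-PK with 50 μM GST-cMyc-p53 substrate; reaction started with Mg/ATP, run 30 min at room temperature, stopped with EDTA. Phospho-Ser15 p53 detected by HTRF (Eu anti-phospho-Ser15, d2 anti-GST), signal = 10000×(Em 665/Em 620).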
A general note: TR-FRET usually uses a lanthanide donor and a delayed reading to cut background.

Assay [1] has as its target PI3K-δ (PI3K(p1108/p857) (h)) (Homo sapiens, UniProt O00329). In words: Evaluation of inhibitory activity against PI3K-δ (HTRF kinase assay). The assay is classed as biochemical. The settings on record: compound concentration 0.01 μM; read-out: EXP_VALUE(% Inhibition) PI3K-δ 0.01 μM. A digest of the protocol: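 HTRF read-out (665/620 nm ratio ×10000) used Eu-labelled anti-GST, GST-tagged GRP1 PH domain and streptavidin-allophycocyanin after EDTA/PIP3 stop.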

Each structure is given as a SMILES string.

Among the data in patent publication US20230072683A1, “PYRIDO-PYRIMIDIN DERIVATIVES AND PHARMACEUTICAL COMPOSITION, FOR USE IN PREVENTING OR TREATING PI3 KINASE RELATED DISEASES, COMPRISING SAME AS ACTIVE INGREDIENT” (BORYUNG PHARMACEUTICAL CO., LTD, priority 2019, published 2023) are inhibition values, retold here.

A word on the inhibition: it is the drop in the measured response relative to a control, in per cent.

Sequence of PI3K-δ (PI3K(p1108/p857) (h)) (O00329 whole entry, the tested form may be a part): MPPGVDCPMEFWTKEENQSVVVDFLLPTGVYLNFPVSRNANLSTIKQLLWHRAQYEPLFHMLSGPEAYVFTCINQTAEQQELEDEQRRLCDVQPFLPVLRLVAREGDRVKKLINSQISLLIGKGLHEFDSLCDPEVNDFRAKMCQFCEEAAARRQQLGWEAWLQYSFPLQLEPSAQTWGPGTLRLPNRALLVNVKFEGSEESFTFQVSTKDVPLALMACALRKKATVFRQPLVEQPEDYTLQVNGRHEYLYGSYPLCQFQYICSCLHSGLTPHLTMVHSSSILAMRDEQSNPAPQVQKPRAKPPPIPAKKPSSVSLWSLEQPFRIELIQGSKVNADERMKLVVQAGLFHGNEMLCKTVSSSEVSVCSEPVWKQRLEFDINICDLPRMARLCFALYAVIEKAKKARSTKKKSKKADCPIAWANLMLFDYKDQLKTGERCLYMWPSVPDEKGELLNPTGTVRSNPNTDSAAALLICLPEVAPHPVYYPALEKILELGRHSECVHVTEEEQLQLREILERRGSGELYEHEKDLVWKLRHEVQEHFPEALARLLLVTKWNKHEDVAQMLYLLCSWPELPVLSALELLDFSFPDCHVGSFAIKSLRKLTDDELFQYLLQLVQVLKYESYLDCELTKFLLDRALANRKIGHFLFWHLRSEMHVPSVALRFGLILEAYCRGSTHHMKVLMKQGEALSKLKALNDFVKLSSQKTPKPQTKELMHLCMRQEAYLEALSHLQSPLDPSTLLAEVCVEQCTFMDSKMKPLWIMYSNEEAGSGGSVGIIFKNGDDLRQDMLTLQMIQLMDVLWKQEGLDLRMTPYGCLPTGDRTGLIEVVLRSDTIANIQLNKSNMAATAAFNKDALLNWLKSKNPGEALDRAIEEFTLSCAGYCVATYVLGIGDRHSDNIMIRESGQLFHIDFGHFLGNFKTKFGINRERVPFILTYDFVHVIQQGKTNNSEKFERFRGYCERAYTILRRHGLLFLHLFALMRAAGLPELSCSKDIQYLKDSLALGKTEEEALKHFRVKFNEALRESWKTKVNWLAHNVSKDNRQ
Sequence of PI3K-δ (PI3K(p1108/p857) (h)) (P27986 whole entry partner, the tested form may be a part): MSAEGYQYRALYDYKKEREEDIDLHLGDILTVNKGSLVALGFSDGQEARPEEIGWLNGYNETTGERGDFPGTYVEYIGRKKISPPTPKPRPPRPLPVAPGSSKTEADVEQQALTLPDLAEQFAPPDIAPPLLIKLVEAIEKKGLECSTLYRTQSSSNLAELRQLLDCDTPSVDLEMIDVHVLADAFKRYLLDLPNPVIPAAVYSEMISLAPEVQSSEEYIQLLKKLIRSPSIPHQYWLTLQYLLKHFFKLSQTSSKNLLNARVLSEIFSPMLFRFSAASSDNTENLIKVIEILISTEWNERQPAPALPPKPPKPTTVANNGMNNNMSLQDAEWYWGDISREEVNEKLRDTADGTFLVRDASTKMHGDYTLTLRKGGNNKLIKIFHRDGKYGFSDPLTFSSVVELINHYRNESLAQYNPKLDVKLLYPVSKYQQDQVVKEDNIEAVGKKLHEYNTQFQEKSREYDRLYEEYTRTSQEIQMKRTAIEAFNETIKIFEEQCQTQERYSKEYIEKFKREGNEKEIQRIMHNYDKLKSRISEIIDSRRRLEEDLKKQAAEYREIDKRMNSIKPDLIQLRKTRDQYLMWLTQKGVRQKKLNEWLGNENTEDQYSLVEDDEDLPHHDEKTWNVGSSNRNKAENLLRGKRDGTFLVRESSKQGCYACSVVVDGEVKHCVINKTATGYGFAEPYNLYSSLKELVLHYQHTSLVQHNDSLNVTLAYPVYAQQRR

For the compound `C[C@H](Nc1ncnc2[nH]ccc(=O)c12)c1c(Cl)c2cccc(C3=CCCC3)c2c(=O)n1-c1ccccc1` [Example 156, (S)-4-((1-(4-chloro-8-(cyclopent-1-en-1-yl)-1-oxo-2-phenyl-1,2-dihydroisoquinolin-3-yl)ethyl)amino)pyrido[2,3-d]pyrimidin-5(8H)-one], the inhibition at 0.01 µM at DNA-PK(h) is 42%; in assay [1], 82%.
For `COc1cc(OC(C)C)cc(-c2cccc3c(Cl)c([C@H](C)Nc4ncnc5[nH]ccc(=O)c45)n(-c4ccccc4)c(=O)c23)c1` [Example 157, (S)-4-((1-(4-chloro-8-(3-isopropoxy-5-methoxyphenyl)-1-oxo-2-phenyl-1,2-dihydroisoquinolin-3-yl)ethyl)amino)pyrido[2,3-d]pyrimidin-5(8H)-one], the inhibition at 0.01 µM came to 52% at DNA-PK(h) and 57% in assay [1].
In the case of `COc1cc(OC(F)(F)F)cc(-c2cccc3c(Cl)c([C@H](C)Nc4ncnc5[nH]ccc(=O)c45)n(-c4ccccc4)c(=O)c23)c1` [Example 158, (S)-4-((1-(4-chloro-8-(3-methoxy-5-(trifluoromethoxy)phenyl)-1-oxo-2-phenyl-1,2-dihydroisoquinolin-3-yl)ethyl)amino)pyrido[2,3-d]pyrimidin-5(8H)-one], the values for the inhibition at 0.01 µM (at DNA-PK(h); in assay [1]) were 18% and 32%, respectively.
The corresponding values for `COc1cc(-c2cccc3c(Cl)c([C@H](C)Nc4ncnc5[nH]ccc(=O)c45)n(-c4ccccc4)c(=O)c23)ccc1OC(F)(F)F` [Example 159, (S)-4-((1-(4-chloro-8-(3-methoxy-4-(trifluoromethoxy)phenyl)-1-oxo-2-phenyl-1,2-dihydroisoquinolin-3-yl)ethyl)amino)pyrido[2,3-d]pyrimidin-5(8H)-one] are 19% and 28%.
In the same order, the values of `Cc1nc(-c2ccc(-c3cccc4c(Cl)c([C@H](C)Nc5ncnc6[nH]ccc(=O)c56)n(-c5ccccc5)c(=O)c34)cc2)no1` [Example 160, (S)-4-((1-(4-chloro-8-(4-(5-methyl-1,2,4-oxadiazol-3-yl)phenyl)-1-oxo-2-phenyl-1,2-dihydroisoquinolin-3-yl)ethyl)amino)pyrido[2,3-d]pyrimidin-5(8H)-one] are 74% and 94%.
Take `C[C@H](Nc1ncnc2[nH]ccc(=O)c12)c1c(Cl)c2cccc(-c3ccc(-c4noc(C(C)(C)C)n4)cc3)c2c(=O)n1-c1ccccc1` [Example 161, (S)-4-((1-(8-(4-(5-(tert-butyl)-1,2,4-oxadiazol-3-yl)phenyl)-4-chloro-1-oxo-2-phenyl-1,2-dihydroisoquinolin-3-yl)ethyl)amino)pyrido[2,3-d]pyrimidin-5(8H)-one]: the inhibition at 0.01 µM on DNA-PK(h) stood at 7%; in assay [1], 24%.
In the same order, the values of `C[C@H](Nc1ncnc2[nH]ccc(=O)c12)c1c(Cl)c2cccc(-c3ccc(OC4CCOCC4)nc3)c2c(=O)n1-c1ccccc1` [Example 162, (S)-4-((1-(4-chloro-1-oxo-2-phenyl-8-(6-((tetrahydro-2H-pyran-4-yl)oxy)pyridin-3-yl)-1,2-dihydroisoquinolin-3-yl)ethyl)amino)pyrido[2,3-d]pyrimidin-5(8H)-one] are 63% and 81%.
On to `C[C@H](Nc1ncnc2[nH]ccc(=O)c12)c1c(Cl)c2cccc(-c3ccc(OCC4CC4)nc3)c2c(=O)n1-c1ccccc1` [Example 163, (S)-4-((1-(4-chloro-8-(6-(cyclopropylmethoxy)pyridin-3-yl)-1-oxo-2-phenyl-1,2-dihydroisoquinolin-3-yl)ethyl)amino)pyrido[2,3-d]pyrimidin-5(8H)-one], for which the inhibition at 0.01 µM at DNA-PK(h) is 45%; in assay [1], 70%.
In the same order, the values of `C[C@H](Nc1ncnc2[nH]ccc(=O)c12)c1c(Cl)c2cccc(-c3ccc(OCc4ccccc4)nc3)c2c(=O)n1-c1ccccc1` [Example 164, (S)-4-((1-(8-(6-(benzyloxy)pyridin-3-yl)-4-chloro-1-oxo-2-phenyl-1,2-dihydroisoquinolin-3-yl)ethyl)amino)pyrido[2,3-d]pyrimidin-5(8H)-one] are 20% and 46%.
In the same order, the values of `C[C@H](Nc1ncnc2[nH]ccc(=O)c12)c1c(Cl)c2cccc(-c3ccc(S(C)(=O)=O)cc3)c2c(=O)n1-c1ccccc1` [Example 165, (S)-4-((1-(4-chloro-8-(4-(methylsulfonyl)phenyl)-1-oxo-2-phenyl-1,2-dihydroisoquinolin-3-yl)ethyl)amino)pyrido[2,3-d]pyrimidin-5(8H)-one] are 91% and 96%.
Regarding `C[C@H](Nc1ncnc2[nH]ccc(=O)c12)c1c(Cl)c2cccc(-c3ccc(C(=O)O)cc3)c2c(=O)n1-c1ccccc1` [Example 166, (S)-4-(4-chloro-1-oxo-3-(1-((5-oxo-5,8-dihydropyrido[2,3-d]pyrimidin-4-yl)amino)ethyl)-2-phenyl-1,2-dihydroisoquinolin-8-yl)benzoic acid], the inhibition at 0.01 µM at DNA-PK(h) came out at 67%; in assay [1], 59%.
The corresponding values for `CNC(=O)c1ccc(-c2cccc3c(Cl)c([C@H](C)Nc4ncnc5[nH]ccc(=O)c45)n(-c4ccccc4)c(=O)c23)cc1` [Example 167, (S)-4-(4-chloro-1-oxo-3-(1-((5-oxo-5,8-dihydropyrido[2,3-d]pyrimidin-4-yl)amino)ethyl)-2-phenyl-1,2-dihydroisoquinolin-8-yl)-N-methylbenzamide] are 81% and 44%.
In the case of `C[C@H](Nc1ncnc2[nH]ccc(=O)c12)c1c(Cl)c2cccc(-c3cnc(C4CC4)nc3)c2c(=O)n1-c1ccccc1` [Example 168, (S)-4-((1-(4-chloro-8-(2-cyclopropylpyrimidin-5-yl)-1-oxo-2-phenyl-1,2-dihydroisoquinolin-3-yl)ethyl)amino)pyrido[2,3-d]pyrimidin-5(8H)-one], the inhibition at 0.01 µM is 67% on DNA-PK(h) and 58% in assay [1].
The corresponding values for `COc1cc(OC)cc(-c2cccc3c(Cl)c([C@H](C)Nc4ncnc5[nH]ccc(=O)c45)n(-c4ccccc4)c(=O)c23)c1` [Example 169, (S)-4-((1-(4-chloro-8-(3,5-dimethoxyphenyl)-1-oxo-2-phenyl-1,2-dihydroisoquinolin-3-yl)ethyl)amino)pyrido[2,3-d]pyrimidin-5(8H)-one] are 67% and 40%.
In the same order, the values of `COc1cc(-c2cccc3c(Cl)c([C@H](C)Nc4ncnc5[nH]ccc(=O)c45)n(-c4ccccc4)c(=O)c23)cnc1OC` [Example 170, (S)-4-((1-(4-chloro-8-(5,6-dimethoxypyridin-3-yl)-1-oxo-2-phenyl-1,2-dihydroisoquinolin-3-yl)ethyl)amino)pyrido[2,3-d]pyrimidin-5(8H)-one] are 66% and 35%.
In the same order, the values of `COc1ncc(-c2cccc3c(Cl)c([C@H](C)Nc4ncnc5[nH]ccc(=O)c45)n(-c4ccccc4)c(=O)c23)cn1` [Example 171, (S)-4-((1-(4-chloro-8-(2-methoxypyrimidin-5-yl)-1-oxo-2-phenyl-1,2-dihydroisoquinolin-3-yl)ethyl)amino)pyrido[2,3-d]pyrimidin-5(8H)-one] are 62% and 58%.
